In brackets after ≈: the same amount, converted by molar mass. Read-outs that look alike come from different tables or passages of the source.
Experiments:
[1] = tested on: rat soumis à une surcharge hydrique; assay: Diuretic activity in rats given a water overload, oral; format: in vivo; settings: rat, water overload, oral, 20 mg/kg; read-out: facteur multipliant l'excrétion urinaire du sodium
Protocol: L'activité diurétique a été déterminée sur plusieurs modèles expérimentaux. Chez le rat soumis à une surcharge hydrique, administrés par voie orale à la dose de 20 mg/kg, le COR3760, le COR3789, le COR3792, le COR4002, le COR4003, le COR4009, le COR4010, le COR4012 et le COR4014 multiplient l'excrétion urinaire du sodium par respectivement un facteur 2,9 - 3,1 - 5,9 - 2,6 - 7,2 - 3,5 - 3,8 - 2,9 - 2,4. Administrés à la dose de 10 mg/kg, dans les mêmes conditions, les COR3760, COR3789, COR3792, COR4003 et COR4010 multiplient l'excrétion sodique par respectivement 2,3 - 2,9 - 2,8 - 2,4 et 2,5. La spironolactone multiplie quant à elle l'excrétion sodique d'un facteur 3,6 à la dose de 20 mg/kg. Administré à la dose de 5 mg/kg dans les mêmes conditions, le COR3792 multiplie l'excrétion sodique par 3,3. Administré par voie orale chez le rat ou la souris soumis à une surcharge saline, le COR3760 augmente l'excrétion urinaire volumétrique mesurée à la sixième heure de respectivement 49, 119 et 134% chez la souris et 28, 84 et 116% chez le rat après administration de 10, 20, et 40 mg/kg. Le COR3760 a été administré par voie orale au rat soumis à une surcharge hydrique et l'excrétion urinaire volumétrique, le sodium et le potassium excrétés ont été mesurés sur une période de 6 heures; ces paramètres ont varié de respectivement +17%, +102%, +165% à 10 mg/kg, +19%, +147%, +180% à 20 mg/kg et +36%, +415% et +239% à 40 mg/kg; le rapport Na/K passe de 0,56 chez les animaux témoins à 0,4 à 10 mg/kg, 0,49 à 20 mg/kg et 0, 8 à 40 mg/ kg. Au cours d'une seconde expérimentation, le COR3760 a entrainé des variations de +19%, +157%, +70% à 40 mg/kg, +19%, +319%, +90% à 60 mg/kg et +29%, +472% et +77% à 80 mg/kg; le rapport Na/K passe de 0,59 chez les animaux témoins à 0,88 à 40, 1,15 à 60 et 1,88 à 80 mg/kg.

[2] = tested on: rat vigile spontanément hypertendu; assay: Antihypertensive activity in conscious spontaneously hypertensive rats (indirect tail pressure); format: in vivo; settings: SHR, oral, 100 mg/kg
Protocol: L'activité antihypertensive a été appréciée chez le rat vigile spontanément hypertendu. La pression artérielle est mesurée de façon indirecte sur la queue 2, 4, 6 heures après l'administration par voie orale du produit à tester. Pour le COR4009, administré à la dose de 100 mg/kg, la réduction de pression est respectivement de 8, 13, 13% à ces échéances.

[3] = tested on: rat Wistar soumis à une surcharge saline; assay: Diuretic activity in selected Wistar rats given a saline overload (modified Wiebelhaus test); format: in vivo
Protocol: L'activité diurétique des produits selon l'invention a été également déterminée chez le rat Wistar soumis à une surcharge saline selon une modification du test décrit par Wiebelhaus et coll., Fed. Proc., 1960, 19, 364, en procédant à une sélection des animaux. A la dose de 20 mg/kg, les COR4003, COR4008, COR4009, COR4010, COR4011, COR4012, COR4014, COR4016, COR4021, COR4025 augmentent l'excrétion urinaire volumétrique mesurée au bout de 6 heures de respectivement 56, 54, 65, 95, 73, 54, 33, 40, 99 et 92 %. L'excrétion urinaire du sodium augmente de respectivement 56, 24, 42, 59, 43, 33, 29, 43, 31, 83, 26, 99, 40 % toujours à cette dose pour les COR4003, COR4008, COR4009, COR4010, COR4011, COR4012, COR4014, COR4016, COR4017, COR4021, COR4023, COR4025 et COR4026. Le rapport Na/K demeure la plupart du temps inchangé. Testé dans les mêmes conditions le furosémide, administré à la dose de 20 mg/kg entraine 63% d'augmentation de l'excrétion urinaire volumétrique et 53% d'augmentation de l'excrétion urinaire du sodium.

[4] = tested on: oreillette gauche de cobaye; assay: Calcium antagonist activity: electrically stimulated guinea pig left atrium; settings: 150 beats/min, low-calcium (0,6 mM) Tyrode solution; read-out: concentration qui inhibe de 50% l'augmentation de la force de contraction induite par l'addition de 0,6 mM de calcium
Protocol: L'activité anticalcique a été déterminée in vitro sur deux modèles expérimentaux.
Sur oreillette gauche de cobaye stimulée électriquement à 150 battements/mn dans une solution de Tyrode pauvre en calcium (0,6 mM), les COR3789, COR3792, COR4009, COR4010 et COR4011 employés respectivement à 25, 100, 50, 10 et 25 microg/ml inhibent de 50% l'augmentation de la force de contraction induite par l'addition de 0,6 mM de calcium.

souris [5] = assay: Anticonvulsant activity: bicuculline-induced convulsions in mice; format: in vivo; settings: mouse, i.p., 100 mg/kg
Protocol: L'activité anticonvulsivante est également déterminée dans le test des inhibitions des convulsions induites par la bicuculline. Des souris reçoivent par voie intrapéritonéale le produit à tester, puis 30 mn et 5 heures plus tard, deux injections séparées de 0,5 mg de bicuculline. […] Les résultats de ce test sont le reflet d'une activité gabaergique directe.

souris [6] = assay: Anticonvulsant activity: maximal electroshock convulsions in mice; format: in vivo; settings: mouse, oral, 100 mg/kg, one hour after administration
Text: L'activité anticonvulsivante est appréciée dans le test de la prévention des convulsions induites par des électrochocs d'intensité maximale.

souris [7] = assay: Acute toxicity (mortality, LD50) in mice; format: in vivo; settings: mouse

Structure (SMILES): COCCNC(C)=C1C(=O)c2ccccc2C1=O [COR4009, ((Méthoxy-2 éthyl) amino-1 éthylidényl)-2 indanedione-1,3]
- response vs control in vivo at 20 mg/kg [1]: 350%
- réduction de pression ([2]; 2 hours after administration): 8%
- réduction de pression ([2]; 4 hours after administration): 13%
- réduction de pression ([2]; 6 hours after administration): 13%
- change in vivo at 20 mg/kg ([3]; 6 h, read-out: augmentation de l'excrétion urinaire volumétrique mesurée au bout de 6 heures): 65%
- change in vivo at 20 mg/kg ([3]; read-out: augmentation de l'excrétion urinaire du sodium): 42%
- IC50 [4]: 50 µg/mL (≈ 204 µM)
- inhibition des convulsions induites par la bicuculline (souris [5]; first bicuculline injection (30 min later)): inhibe les convulsions induites par la première injection
- inhibition des convulsions induites par la bicuculline (souris [5]; second bicuculline injection (5 hours later)): sans inhiber celles induites par la deuxième
- prévention des convulsions induites par des électrochocs d'intensité maximale (souris [6]): on n'observe plus de convulsions
- mortalité (souris [7]; intraperitoneal, 200 mg/kg): aucune mortalité
- mortalité (souris [7]; oral, 300 mg/kg): aucune mortalité

From patent EP0171342A1, “Substituted 2-(1-amino-akylidenyl)1,3-indane diones, process for their preparation and their therapeutical use” (priority 1984, dated 1986)
